According to PMC4890260, “Engineering Bacillus licheniformis for the production of meso-2,3-butanediol” (Biotechnology for Biofuels, 2016):

Tests used:
[1] = target: T1, WX-02 GDH (Bacillus licheniformis, UniProt X5FDW5); assay: NADH formation at […] nm; assay type: biochemical; conditions: 4 mM NAD+; 50 mM substrate; Z buffer pH 7.0; 37 °C; 1 mM MgSO4, 10 mM DTT
T1 construct: primers encode native N-term MSKSVK (MG added before) and C-term AESYHD
T1 sequence (X5FDW5 1-367): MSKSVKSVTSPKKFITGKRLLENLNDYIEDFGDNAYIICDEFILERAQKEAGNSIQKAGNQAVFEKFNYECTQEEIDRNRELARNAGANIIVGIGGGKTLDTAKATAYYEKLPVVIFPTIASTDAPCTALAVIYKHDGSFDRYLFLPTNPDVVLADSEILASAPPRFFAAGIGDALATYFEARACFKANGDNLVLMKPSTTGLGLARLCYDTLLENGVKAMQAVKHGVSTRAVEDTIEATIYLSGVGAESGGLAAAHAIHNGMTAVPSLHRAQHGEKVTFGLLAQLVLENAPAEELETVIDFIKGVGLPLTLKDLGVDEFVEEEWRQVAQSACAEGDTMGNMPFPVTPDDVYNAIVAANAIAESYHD

[2] = target: T1, WX-02 GDH; assay: NADH oxidation at […] nm; assay type: biochemical; conditions: 0.2 mM NADH; 50 mM substrate; Z buffer pH 7.0; 37 °C; 1 mM MgSO4, 10 mM DTT

SMILES	NADH formation at 340 nm [1]	NADH oxidation at 340 nm [2]
C[C@@H](O)[C@@H](C)O [D-2,3-BD]	this enzyme exhibited the highest activity towards D-2,3-BD among various substrates	–
CC(=O)[C@@H](C)O [D-AC]	–	WX-02 GDH accepted D-AC, D-2,3-BD, meso-2,3-BD, and glycerol as substrates
